What was measured:
Assay type in all cases: cell-based
[1] = test system: HAP1 MTAP-deleted cell line; test: viability assay for the MTAP-deleted cell line; details: Homo sapiens
[2] = test system: PRMT5 (SDMA) in HAP1 MTAP-deleted cell line; test: SDMA in-cell western assay, HAP1 MTAP-deleted cell line; details: for IC50 / IC90: Homo sapiens, SDMA in-cell western, HAP1 MTAP-deleted (MTAP-null) cell line; for Hap1 MTAP intact/deleted ratio: ratio of SDMA in-cell western IC50 in HAP1 MTAP-intact to IC50 in HAP1 MTAP-deleted cell line
Source text: (§1) HAP1 MTAP-intact is a cell line in which endogenous levels of MTAP are expressed, and HAP1 MTAP-deleted is an MTAP-null cell line.

[3] = test system: PRMT5 (SDMA) in HAP1 MTAP-intact cell line; test: SDMA in-cell western assay, HAP1 MTAP-intact cell line; details: Homo sapiens, HAP1 MTAP-intact cell line (endogenous MTAP), read-out: Hap 1 MTAP intact IC50
Source text: as §1

IC50 [2] [µM] | IC90 [2] [µM] | IC50 [3] [µM] | SMILES | IC50 [1] [µM] | Hap1 MTAP intact/deleted ratio [2]
0.005 to 0.05 | 0.075 to 0.125 | > 0.05 | COc1ncc(NC(=O)C(=O)N2C[C@@H](C)N(C(=O)C3(C(F)(F)F)CC3)C[C@@H]2c2ccc(F)c(Cl)c2)cc1C(N)=O [Compound 63, 5-(2-((2S,5R)-2-(3-chloro-4-fluorophenyl)-5-methyl-4-(1-(trifluoromethyl)cyclopropanecarbonyl)piperazin-1-yl)-2-oxoacetamido)-2-methoxynicotinamide] | 0.1 to 1 | A (an IC50 ratio greater than or equal to 30 fold)
< 0.005 | < 0.075 | > 0.05 | C[C@@H]1CN(C(=O)C(=O)Nc2cncc3cn[nH]c23)[C@@H](c2ccccc2)CN1CC(C)(C)C [Compound 44, 2-oxo-N-(1H-pyrazolo[4,3-c]pyridin-7-yl)-2-[(2S,5R)-4-(2,2-dimethylpropyl)-5-methyl-2-phenyl-piperazin-1-yl]acetamide] | 0.1 to 1 | A (an IC50 ratio greater than or equal to 30 fold)
0.005 to 0.05 | < 0.075 | > 0.05 | C[C@@H]1CN(C(=O)C(=O)Nc2cncc3[nH]ncc23)[C@@H](c2ccc(F)cc2)CN1C(=O)C(C)(C)C [Compound 125, 2-[(2R,5R)-4-(2,2-dimethylpropanoyl)-2-(4-fluorophenyl)-5-methyl-piperazin-1-yl]-2-oxo-N-(^1H-pyrazolo[3,4-c]pyridin-4-yl)acetamide] | 0.1 to 1 | A (an IC50 ratio greater than or equal to 30 fold)
0.005 to 0.05 | 0.075 to 0.125 | > 0.05 | CCc1cc(NC(=O)C(=O)N2C[C@@H](C)OC[C@@H]2c2ccc3sc(C4CCN(C)CC4)nc3c2)cnc1N [Compound 96] | < 0.1 | B (an IC50 ratio greater than or equal to 15 fold but lower than 30 fold)
0.005 to 0.05 | 0.075 to 0.125 | > 0.05 | Cc1cc(NC(=O)C(=O)N2C[C@@H](C)N(C(=O)C3(C(F)(F)F)CC3)C[C@@H]2c2ccc(Cl)c(Cl)c2)cnc1N [Compound 119, N-(6-amino-5-methylpyridin-3-yl)-2-((2S,5R)-2-(3,4-dichlorophenyl)-5-methyl-4-(1-(trifluoromethyl)cyclopropanecarbonyl)piperazin-1-yl)-2-oxoacetamide] | < 0.1 | C (an IC50 ratio of less than 15 fold)
< 0.005 | < 0.075 | 0.005 to 0.05 | C[C@@H]1CN(C(=O)C(=O)Nc2cncc3cn[nH]c23)[C@@H](c2ccccc2)CN1C(=O)C(C)(C)C [Compound 156, 2-((2S,5R)-5-methyl-2-phenyl-4-pivaloylpiperazin-1-yl)-2-oxo-N-(1H-pyrazolo[4,3-c]pyridin-7-yl)acetamide] | < 0.1 | C (an IC50 ratio of less than 15 fold)
< 0.005 | < 0.075 | 0.005 to 0.05 | CCc1cc(NC(=O)C(=O)N2C[C@@H](C)N(C(=O)C(C)(C)C)C[C@@H]2c2ccc(N3CCN(C)CC3)cc2)cnc1N [Compound 130, N-(6-amino-5-ethylpyridin-3-yl)-2-((2S,5R)-5-methyl-2-(4-(4-methylpiperazin-1-yl)phenyl)-4-pivaloylpiperazin-1-yl)-2-oxoacetamide] | < 0.1 | C (an IC50 ratio of less than 15 fold)
> 0.05 | > 0.125 | > 0.05 | COc1ncc(NC(=O)C(=O)N2C[C@H](C)N(C(=O)C(C)C)C[C@H]2c2ccc(F)cc2)cc1C(N)=O [Compound 88, 5-[[2-[(2R,5S)-2-(4-fluorophenyl)-5-methyl-4-(2-methylpropanoyl)piperazin-1-yl]-2-oxo-acetyl]amino]-2-methoxy-pyridine-3-carboxamide] | > 1 | C (an IC50 ratio of less than 15 fold)
< 0.005 | < 0.075 | 0.005 to 0.05 | CCc1cc(NC(=O)C(=O)N2C[C@@H](C)N(C(=O)C(C)(C)C)C[C@@H]2c2ccccc2)cnc1N [Compound 140, N-(6-amino-5-ethylpyridin-3-yl)-2-((2S,5R)-5-methyl-2-phenyl-4-pivaloylpiperazin-1-yl)-2-oxoacetamide] | < 0.1 | C (an IC50 ratio of less than 15 fold)
0.005 to 0.05 | 0.075 to 0.125 | > 0.05 | COc1ncc(NC(=O)C(=O)N2C[C@@H](C)N(C(=O)C(C)C)C[C@@H]2c2ccc(F)cc2)cc1C(N)=O [Compound 83, 5-[[2-[(2S,5R)-2-(4-fluorophenyl)-5-methyl-4-(2-methylpropanoyl)piperazin-1-yl]-2-oxo-acetyl]amino]-2-methoxy-pyridine-3-carboxamide] | 0.1 to 1 | A (an IC50 ratio greater than or equal to 30 fold)
< 0.005 | < 0.075 | 0.005 to 0.05 | Cc1cc(NC(=O)C(=O)N2C[C@@H](C)N(C(=O)C3(C)CC3)C[C@@H]2c2cccs2)cnc1N (single isomer, unassigned) [Compound 53] | < 0.1 | C (an IC50 ratio of less than 15 fold)
0.005 to 0.05 | > 0.125 | > 0.05 | CCc1cc(NC(=O)C(=O)N2CCN(C(=O)C3(C(F)(F)F)CC3)C[C@H]2c2ccc(F)c(Cl)c2)cnc1N (single isomer, unassigned) [Compound 123] | 0.1 to 1 | A (an IC50 ratio greater than or equal to 30 fold)
